Measured values as given in patent publication US5756537A (Parkash S. Gill, M.D., Inc., priority 1996, dated 1998).
In brackets after ≈: the same amount, converted by molar mass. Entries after “also recorded” stand apart in the source; their conditions may differ. Read-outs that look alike come from different tables or passages of the source.

Legend:
[1] = tested on: Kaposi's sarcoma; assay: Clinical results with paclitaxel in KS, overall
Description: The mode or route of administration can be parenteral: e.g., intravenous; intraperitoneal; subcutaneous; oral; or topical for cutaneous tumors.
All patients had advanced KS defined by more than 25 cutaneous lesions, or presence of visceral disease, or lymphedema. Other eligibility criteria included adequate hepatic, renal, and bone marrow function defined as a bilirubin<2.0 mg/dl, GOT<x upper limit of normal, creatinine<2.1 mg/dl, granulocytes>1000/mm^3, and platelets>75,000/mm^3. Patients could not have had prior therapy for their KS within the last 2 weeks. The dosage and schedule was 100 mg/m^2 intravenously every 2 weeks.

[2] = tested on: bone marrow suppression; conditions: human, in vivo
[3] = tested on: AIDS-KS; assay: Phase II trial, strata 2 (no prior systemic chemotherapy); assay type: in vivo, human; conditions: 100 mg/m^2 iv every 2 weeks
Excerpt: Strata 2 of the study consisted of 20 patients with advanced AIDS-KS who had not received any prior systemic chemotherapy. The demographic characteristics and the results of treatment are provided below (Table 4-6).

[4] = tested on: bone marrow suppression; assay: G-CSF use in the clinical trial patients
[5] = tested on: Kaposi's sarcoma; assay: Example 5: pilot study of ten patients; assay type: in vivo, human; conditions: 100 mg/m^2 over 3 hr every 2 weeks
Excerpt: Seven of these ten patients had previously been treated with one or more previous regimens cytotoxic chemotherapy regimens. All were severely immunodeficient with history of opportunistic infection in six, advanced KS with numerous cutaneous KS lesions, involvement of visceral disease (which is generally fatal) in five.

[6] = tested on: AIDS-KS spindle cell lines, KS Y-1 P105; assay: Cell proliferation assay (cell counting, day 5 or 6); assay type: cell-based
Description: FIG. 1. […] At that time surviving cells were assayed by cell counting.
AIDS-KS spindle cell lines were seeded at a density of 1.0×10^4 cells/well in a 24-well plate in KS medium. […] The cell counts were performed on day 5 or 6 using a Coulter Particulate Counter (Hialeah, Fla.).

[7] = tested on: ovarian and breast cancer; conditions: cited from earlier work
[8] = Paclitaxel peak levels, AUC and relation to effect and side effects in KS patients; conditions: human, blood, iv
Description: (§1) This area is calculated using the equation: [formula] where λi is the exponent of the i-th exponential term, and Ci is the initial concentration of the i-th component of the curve. Curve fitting with this model yields the parameters Ci, C2, C3 λ1, λ2 and λ3. The half-lives (t1/2 s) are calculated from the equations t1/2 (α)=0.693/λ1, t1/2 (β)=0.693/λ2 and t1/2 (γ)=0.693/λ3. The total area under the curve (AUC0→.infin.)) is calculated using the linear trapezoidal method with extrapolation of the terminal phase to infinity (Clast /λ3), where Clast is the last measured concentration.
(§2) Typically, maintenance therapy is maintained for a minimum of 3-5 cycles.

[9] = tested on: Kaposi's sarcoma; assay: as above
Description: as §1, §2

[10] = tested on: AIDS-KS
[11] = tested on: KS Y-1 cells; assay: In vivo KS tumor model in nude mice; parameters: species or system Balbc/nu mouse; conditions: 10 mg/kg intraperitoneally, days 1, 5 and 9; measured day 14 and 21
Description: FIG. 2. […] Tumor size was measured on days 14 and 21.
KS cell lines that propagate in the immunodeficient mouse were treated with paclitaxel. 1.0×10^7 cells were implanted subcutaneously in each Balbc/nu (Charles River) mouse.

[12] = tested on: Kaposi's sarcoma; assay: Example 3: HIV-negative person with KS; assay type: in vivo, human
Excerpt: Patient, a very fragile person presented with KS. […] Other medical problems included hypertension, cardiac arrhythmia, congestive heart failure, and hypothyroidism.
Prior therapy included radiation therapy. The radiated areas included both feet and eye lids. […] Cytotoxic chemotherapy was given with combination chemotherapy consisting of bleomycin, vincristine and adriamycin.
Premedication included dexamethasone, diphenhydramine, and cimetidine.

[13] = tested on: Kaposi's sarcoma; assay: Example 4: person with KS; assay type: in vivo, human
Excerpt: Due to very extensive disease, a representative area of tumor was monitored.

[14] = tested on: Kaposi's sarcoma; conditions: […]^2 to 175 mg/m^2 over three hours, every 21 days; cited from earlier work
[15] = of patients with no G-CSF prior to paclitaxel
[16] = 33 evaluable, 100 mg/m^2 iv every 2 weeks
[17] = 75 mg/m^2 every two weeks, three hour infusion

Which results are given for `CC(=O)O[C@H]1C(=O)[C@@]2(C)[C@H]([C@H](OC(=O)c3ccccc3)[C@]3(O)C[C@H](OC(=O)[C@H](O)[C@@H](NC(=O)c4ccccc4)c4ccccc4)C(C)=C1C3(C)C)[C@]1(OC(C)=O)CO[C@@H]1C[C@@H]2O` [paclitaxel]?
effectiveness in KS versus other tumors ([1]; 100 mg/m^2 every 2 weeks): more effective therapeutically to KS compared to any other tumor studied thus far in the clinic; tolerability ([1]; 100 mg/m^2 every 2 weeks): extremely well tolerated; median duration of response ([1]; 35-100 mg/m^2 every 10-16 days): greater than 20 weeks; median time to achieve partial response ([1]; 35-100 mg/m^2 every 10-16 days): 6-10 weeks; median time to achieve partial response (cycles) ([1]; 35-100 mg/m^2 every 10-16 days): 3-5 cycles; side effects ([1]; aside from mild to moderate hair loss and occasional other mild toxicities): the lack of side effects is extraordinary; duration of response as reflected by the median number of cycles tolerated, versus all previously studied drugs ([1]; compared to all previously studied drugs and combinations): two fold longer; duration of response, range ([1]; up to): up to 60 weeks; Any G-CSF use (percent) [2]: 69%; Never required G-CSF (percent) [2]: 48%; patients who did not require G-CSF [2]: approximately 50%; Cycles to response, range [3]: 3-9 cycles; Median cycles to response [3]: 3 cycles; Complete response (count) ([3]; 19 evaluable): 1; Complete response (percent) ([3]; 19 evaluable): 5%; Minimal response/stable disease (count) ([3]; 19 evaluable): 6; Minimal response/stable disease (percent) ([3]; 19 evaluable): 32%; Partial response (count) ([3]; 19 evaluable): 12; Partial response (percent) ([3]; 19 evaluable): 63%; Progression (count) ([3]; 19 evaluable): 0; Anemia, Grade 2 (count) ([3]; n = 20): 6; Anemia, Grade 2 (percent) ([3]; n = 20): 30%; Anemia, Grade 3 (count) ([3]; n = 20): 0; Anemia, Grade 4 (count) ([3]; n = 20): 0; Diarrhea, Grade 3 ([3]; n = 20): 0; Diarrhea, Grade 4 ([3]; n = 20): 0; Fevers, Grade 3 ([3]; n = 20): 1; Fevers, Grade 4 ([3]; n = 20): 0; Myalgia, Grade 3 ([3]; n = 20): 0; Nausea/Vomiting, Grade 1/2 ([3]; n = 20): 8; Neuropathy, Grade 3 ([3]; n = 20): 0; Neuropathy, Grade 4 ([3]; n = 20): 0; Neutropenia, Grade 2 (count) ([3]; n = 20): 4; Neutropenia, Grade 2 (percent) ([3]; n = 20): 20%; Neutropenia, Grade 3 (count) ([3]; n = 20): 2; Neutropenia, Grade 3 (percent) ([3]; n = 20): 10%; Neutropenia, Grade 4 (count) ([3]; n = 20): 3; Neutropenia, Grade 4 (percent) ([3]; n = 20): 15%; Rash ± Pruritus, Grade 1/2 ([3]; n = 20): 9; Rash ± Pruritus, Grade 3 ([3]; n = 20): 0; Thrombocytopenia, Grade 2 (count) ([3]; n = 20): 0; Thrombocytopenia, Grade 3 (count) ([3]; n = 20): 0; Thrombocytopenia, Grade 4 (count) ([3]; n = 20): 0; Any G-CSF use (fraction) ([4]; n = 43): 30/43; Never required G-CSF (fraction) [4, 15]: 13/27; Required G-CSF after start of paclitaxel therapy (fraction) [4, 15]: 14/27; bone marrow suppression (including neutropenia) ([4]; patients who did not require G-CSF): not observed; patients with partial or complete response [5]: five of the ten; responses in patients who had previously failed chemotherapy [5]: Responses were observed; responses in patients with otherwise fatal pulmonary disease [5]: Responses were also observed; tolerability [5]: well tolerated; tumor associated edema [5]: resolution of tumor associated edema was observed; IC50 ([6]; P1(0.5), KS Y-1 P105, treated day 1 and 3, counted day 5 or 6): 2 to 3 ng/mL (≈ 2.34 to 3.51 nM); sensitivity of KS cells to paclitaxel in vitro ([6]; in vitro): as sensitive to paclitaxel as human ovarian cell lines; also recorded: unusual sensitivity; dose generally required to obtain responses ([7]; 3-96 hour infusion, every 3-4 weeks): 175-200 mg/m^2; threshold peak level necessary for pharmaceutical effect ([7]; Wiernak, et al.): 0.1 µM; Cmax [8]: 100 to 1000 nM; length of time peak levels are achieved ([9]; 50-100 mg/m^2, three hour bolus, would be expected): less than 15 hours; myelosuppression ([9]; AUC 1-4 μM/hour, three hour bolus of 50-100 mg/m^2 every 14 days): not observed; unwanted hematological and non-hematological side effects ([9]; peak levels maintained at 15 hours or less): absent; neutropenia and other side effects ([9]; threshold level 0.1-1 μM for shorter periods, AUC 1-4 μM/hour): reduce neutropenia and other side effects; Cycles to response, range ([10]; 100 mg/m^2 iv every 2 weeks): 3-9 cycles; Median cycles to response ([10]; 100 mg/m^2 iv every 2 weeks): 5 cycles; median duration of response ([10]; 100 mg/m^2 iv every 2 weeks): ≥ 5 months; Complete response (count) [10, 16]: 0; Minimal response/stable disease (count) [10, 16]: 12; Minimal response/stable disease (percent) [10, 16]: 34%; Partial response (count) [10, 16]: 23; Partial response (percent) [10, 16]: 66%; Progression (count) [10, 16]: 0; Median Survival ([10]; not reached): > 6 months; activity in patients with prior systemic chemotherapy ([10]; preliminary results): confirmed; tumor growth [11]: markedly inhibited; disease status after one cycle ([12]; 35 mg/m^2, after relapse): stable; number of doses to complete tumor resolution ([12]; 75 mg/m^2 every two weeks): five; period to complete tumor resolution ([12]; 75 mg/m^2 every two weeks): eight; response [12, 17]: remarkable response with resolution of KS, oozing, foul smell and edema; toxicities experienced [12, 17]: skin itching and moderate hair loss; bone marrow suppression and neutropenia ([12]; 75 mg/m^2 every two weeks, three hour infusion, no G-CSF): lack of bone marrow suppression and accompanying neutropenia; biopsy of the area of skin tumor ([12]; after 75 mg/m^2 every two weeks): lack of KS pathologically; remission after the last combination chemotherapy treatment ([12]; paclitaxel alone and in combination with liposomally encapsulated doxorubicin for five months): eight; KS lesions three months after initiation of the lower dose ([13]; 35 mg/m^2 every 2 weeks): completely flat (Clinical Complete Remission); tolerability ([13]; 35 mg/m^2 every 2 weeks): well tolerated, and their hair grew back while on therapy; hair loss ([13]; 75 mg/m^2): severe hair loss; response to the first dose ([13]; 75 mg/m^2): rapid response; lesion count on the left forearm ([13]; after single dose of 75 mg/m^2, 32 lesions prior to paclitaxel): 12 lesions; raised lesions on the left forearm ([13]; after single dose of 75 mg/m^2, all 32 raised prior to therapy): two; myelosuppression [14]: increased incidents of myelosuppression

With bleomycin as the molecule, how does the pneumonitis ([12]; combination chemotherapy of bleomycin, vincristine and adriamycin) read?
Its pneumonitis is “pneumonitis with bilateral diffuse infiltration”.
